Experimental data reported in US4533675A (priority 1984, dated 1985).
Where two headings read alike, the source gives them in different places.

Assays:
[1] = ip injection, data from Brossi et al., J. Med. Chem., 26:1365 (1983); cited from earlier work
[2] = LD50 in mice after ip injection; format: in vivo
tubulin protein = assay: Tubulin binding in vitro

SMILES: COc1cc2c(c(OC)c1OC)-c1ccc(OC)c(=O)cc1[C@@H](NC(C)=O)CC2 [Colchicine, colchicine]
- LD50 in Mice after ip inj [1]: 3.0 mg/kg

SMILES: CCOC(=O)N[C@H]1CCc2cc(OC)c(OC)c(OC)c2-c2ccc(SC)c(=O)cc21 [Et H SMe]
- LD50 in Mice after ip inj [2]: 77.1 mg/kg
- Tubulin Binding in vitro (tubulin protein): 96

SMILES: COc1cc2c(c(OC)c1OC)-c1ccc(SC)c(=O)cc1[C@@H](NC(=O)Oc1ccccc1)CC2 [Ph H SMe, N-Phenoxycarbonyl-deacetylthiocolchicine]
- LD50 ([2]; mouse, in vivo, read-out: LD50 in Mice after ip inj): 50 mg/kg
